From patent US10072011B2, “Substituted bridged urea analogs as sirtuin modulators” (GlaxoSmithKline Intellectual Property (No.2) Limited, priority 2014, dated 2018)
Where two headings read alike, the source gives them in different places.

Biological target: T1, SIRT1 (Homo sapiens, UniProt Q96EB6)
T1 sequence (Q96EB6 1-747): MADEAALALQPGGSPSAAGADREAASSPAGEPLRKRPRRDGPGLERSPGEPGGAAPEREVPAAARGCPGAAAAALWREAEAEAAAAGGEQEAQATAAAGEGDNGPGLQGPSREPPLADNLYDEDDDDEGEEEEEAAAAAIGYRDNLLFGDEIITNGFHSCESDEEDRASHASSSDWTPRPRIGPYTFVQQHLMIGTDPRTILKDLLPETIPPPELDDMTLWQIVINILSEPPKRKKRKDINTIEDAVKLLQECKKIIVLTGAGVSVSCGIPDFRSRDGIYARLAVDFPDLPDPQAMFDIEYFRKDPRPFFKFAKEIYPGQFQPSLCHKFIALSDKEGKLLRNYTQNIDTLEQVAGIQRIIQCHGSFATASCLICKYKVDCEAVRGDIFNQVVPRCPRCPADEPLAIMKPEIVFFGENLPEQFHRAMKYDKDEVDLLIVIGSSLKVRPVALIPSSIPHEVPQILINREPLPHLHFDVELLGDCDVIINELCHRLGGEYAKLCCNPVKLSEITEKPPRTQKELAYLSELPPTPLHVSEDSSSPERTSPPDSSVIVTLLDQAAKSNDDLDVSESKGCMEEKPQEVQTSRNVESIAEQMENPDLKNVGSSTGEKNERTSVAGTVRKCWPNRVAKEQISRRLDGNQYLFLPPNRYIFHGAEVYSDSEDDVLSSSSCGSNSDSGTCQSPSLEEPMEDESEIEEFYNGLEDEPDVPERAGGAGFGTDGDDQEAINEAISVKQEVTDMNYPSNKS
Test: Trp mass spectrometry assay of SIRT1 activation (Ac-R-H-K-K(Ac)-W-NH2 peptide)
Assay type: biochemical
Details: for Emax: 25 min, read-out: TRP MAX RESP (percent maximum fold activation)
Method in brief: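 N-terminal His-tagged human SIRT1, expressed in BL21(DE3) and purified, was incubated 25 min with an acetylated Trp peptide and NAD plus test compound at varying concentrations, then quenched with formic acid. OAADPR or deacetylated peptide was quantified by mass spectrometry versus compound-free control; EC1.5 is the concentration giving 50% activity increase, with percent maximum activation.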

[1] = Trp peptide 0.5 μM, 120 μM βNAD+, 10 nM SIRT1, 25 min at 25° C., relative to control (100%)
[2] = Trp peptide 0.5 μM, 120 μM βNAD+, 10 nM SIRT1, 25 min at 25° C.

Row | Structure (SMILES) | Emax [1] [%] | TRP Activity (EC1.5, concentration of test compound that results in 150% activation of SIRT1) [2] | Emax [%]
1 | C[C@@H](NC(=O)c1ccc2c(n1)N(C(=O)Nc1cc(C(=O)NCCO)ccn1)[C@H]1CCN2C1)C(F)(F)F [Example 131, (4S)—N5-(4-((2-hydroxyethyl)carbamoyl)pyridin-2-yl)-N7-((R)-1,1,1-trifluoropropan-2-yl)-3,4-dihydro-1,4-methanopyrido[2,3-b][1,4]diazepine-5,7(2H)-dicarboxamide] | > 150 | A (EC1.5<1 μM) | –
2 | C[C@@H](NC(=O)c1ccc2c(n1)N(C(=O)Nc1cc(OCCO)ccn1)[C@H]1CCN2C1)C(F)(F)F [Example 132, (4S)—N5-(4-(2-hydroxyethoxy)pyridin-2-yl)-N7-((R)-1,1,1-trifluoropropan-2-yl)-3,4-dihydro-1,4-methanopyrido[2,3-b][1,4]diazepine-5,7(2H)-dicarboxamide] | > 150 | A (EC1.5<1 μM) | –
3 | O=C(NCC(F)(F)F)c1ccc2c(n1)N(C(=O)Nc1cc3c(cn1)OCCC3)[C@H]1CCN2C1 [Example 133, (4S)—N5-(3,4-dihydro-2H-pyrano[2,3-c]pyridin-6-yl)-N7-(2,2,2-trifluoroethyl)-3,4-dihydro-1,4-methanopyrido[2,3-b][1,4]diazepine-5,7(2H)-dicarboxamide] | > 150 | A (EC1.5<1 μM) | –
4 | C[C@@H](NC(=O)c1ccc2c(n1)N(C(=O)Nc1cc(-c3cnco3)ccn1)[C@H]1CCN2C1)C(F)(F)F [Example 134, (4S)—N5-(4-(oxazol-5-yl)pyridin-2-yl)-N7-((R)-1,1,1-trifluoropropan-2-yl)-3,4-dihydro-1,4-methanopyrido[2,3-b][1,4]diazepine-5,7(2H)-dicarboxamide] | > 150 | A (EC1.5<1 μM) | –
5 | COc1ccnc(NC(=O)N2c3nc(C(=O)N[C@H](C)C(F)(F)F)ccc3N3CC[C@H]2C3)c1 [Example 135, (4S)—N5-(4-methoxypyridin-2-yl)-N7-((R)-1,1,1-trifluoropropan-2-yl)-3,4-dihydro-1,4-methanopyrido[2,3-b][1,4]diazepine-5,7(2H)-dicarboxamide] | > 150 | A (EC1.5<1 μM) | –
6 | COc1ccnc(NC(=O)N2c3nc(C(=O)NCC(F)(F)F)ccc3N3CC[C@H]2C3)c1 [Example 136, (4S)—N5-(4-methoxypyridin-2-yl)-N7-(2,2,2-trifluoroethyl)-3,4-dihydro-1,4-methanopyrido[2,3-b][1,4]diazepine-5,7(2H)-dicarboxamide] | > 150 | A (EC1.5<1 μM) | –
7 | C[C@@H](NC(=O)c1ccc2c(n1)N(C(=O)Nc1cc(C(N)=O)ccn1)[C@H]1CCN2C1)C(F)(F)F [Example 137, (4S)—N5-(4-carbamoylpyridin-2-yl)-N7-((R)-1,1,1-trifluoropropan-2-yl)-3,4-dihydro-1,4-methanopyrido[2,3-b][1,4]diazepine-5,7(2H)-dicarboxamide] | > 150 | A (EC1.5<1 μM) | –
8 | C[C@@H](NC(=O)c1ccc2c(n1)N(C(=O)Nc1cc3c(cn1)OCCC3)[C@H]1CCN2C1)C(F)(F)F [Example 138, (4S)—N5-(3,4-dihydro-2H-pyrano[2,3-c]pyridin-6-yl)-N7-((R)-1,1,1-trifluoropropan-2-yl)-3,4-dihydro-1,4-methanopyrido[2,3-b][1,4]diazepine-5,7(2H)-dicarboxamide] | > 150 | A (EC1.5<1 μM) | –
9 | Cc1ccc2c(NC(=O)N3c4nc(C(=O)N[C@H](CO)C(F)(F)F)ccc4N4CC[C@H]3C4)n[nH]c2n1 [Example 139, (4S)—N5-(6-methyl-1H-pyrazolo[3,4-b]pyridin-3-yl)-N7-((R)-1,1,1-trifluoro-3-hydroxypropan-2-yl)-3,4-dihydro-1,4-methanopyrido[2,3-b][1,4]diazepine-5,7(2H)-dicarboxamide] | > 150 | A (EC1.5<1 μM) | –
10 | O=C(NCC(F)(F)F)c1ccc2c(n1)N(C(=O)Nc1ncc3[nH]ccc3n1)[C@H]1CCN2C1 [Example 140, (4S)—N5-(5H-pyrrolo[3,2-d]pyrimidin-2-yl)-N7-(2,2,2-trifluoroethyl)-3,4-dihydro-1,4-methanopyrido[2,3-b][1,4]diazepine-5,7(2H)-dicarboxamide] | – | A (EC1.5<1 μM) | > 150
11 | C[C@@H](NC(=O)c1ccc2c(n1)N(C(=O)Nc1cccc(OC[C@H](O)CO)n1)[C@H]1CCN2C1)C(F)(F)F [Example 141, (4S)—N5-(6-((R)-2,3-dihydroxypropoxy)pyridin-2-yl)-N7-((R)-1,1,1-trifluoropropan-2-yl)-3,4-dihydro-1,4-methanopyrido[2,3-b][1,4]diazepine-5,7(2H)-dicarboxamide] | > 150 | A (EC1.5<1 μM) | –
12 | C#C[C@H](C)NC(=O)c1ccc2c(n1)N(C(=O)Nc1ccccn1)[C@H]1CCN2C1 [Example 142, (4S)—N7-((S)-but-3-yn-2-yl)-N5-(pyridin-2-yl)-3,4-dihydro-1,4-methanopyrido[2,3-b][1,4]diazepine-5,7(2H)-dicarboxamide] | > 150 | A (EC1.5<1 μM) | –
13 | NC(=O)c1ccc(NC(=O)N2c3nc(C(=O)NCC(F)(F)F)ccc3N3CC[C@H]2C3)nc1 [Example 143, (4S)—N5-(5-carbamoylpyridin-2-yl)-N7-(2,2,2-trifluoroethyl)-3,4-dihydro-1,4-methanopyrido[2,3-b][1,4]diazepine-5,7(2H)-dicarboxamide] | > 150 | A (EC1.5<1 μM) | –
14 | C[C@@H](NC(=O)c1ccc2c(n1)N(C(=O)Nc1cccc(OC[C@@H](O)CO)n1)[C@H]1CCN2C1)C(F)(F)F [Example 144, (4S)—N5-(6-((S)-2,3-dihydroxypropoxy)pyridin-2-yl)-N7-((R)-1,1,1-trifluoropropan-2-yl)-3,4-dihydro-1,4-methanopyrido[2,3-b][1,4]diazepine-5,7(2H)-dicarboxamide] | > 150 | A (EC1.5<1 μM) | –
15 | O=C(NCC1CC1)c1ccc2c(n1)N(C(=O)Nc1cc3c(cn1)OCCC3)[C@H]1CCN2C1 [Example 145, (4S)—N7-(cyclopropylmethyl)-N5-(3,4-dihydro-2H-pyrano[2,3-c]pyridin-6-yl)-3,4-dihydro-1,4-methanopyrido[2,3-b][1,4]diazepine-5,7(2H)-dicarboxamide] | > 150 | A (EC1.5<1 μM) | –
16 | CS(=O)(=O)c1ccc(NC(=O)N2c3nc(C(=O)NCC(F)(F)F)ccc3N3CC[C@H]2C3)nc1 [Example 146, (4S)—N5-(5-(methylsulfonyl)pyridin-2-yl)-N7-(2,2,2-trifluoroethyl)-3,4-dihydro-1,4-methanopyrido[2,3-b][1,4]diazepine-5,7(2H)-dicarboxamide] | > 150 | B (EC1.5 1-25 μM) | –
17 | C[C@@H](NC(=O)c1ccc2c(n1)N(C(=O)Nc1ncc3[nH]ccc3n1)[C@H]1CCN2C1)C(F)(F)F [Example 147, (4S)—N5-(5H-pyrrolo[3,2-d]pyrimidin-2-yl)-N7-((R)-1,1,1-trifluoropropan-2-yl)-3,4-dihydro-1,4-methanopyrido[2,3-b][1,4]diazepine-5,7(2H)-dicarboxamide] | > 150 | A (EC1.5<1 μM) | –
18 | Cc1ncc(-c2ccnc(NC(=O)N3c4nc(C(=O)N[C@H](C)C(F)(F)F)ccc4N4CC[C@H]3C4)c2)s1 [Example 148, (4S)—N5-(4-(2-methylthiazol-5-yl)pyridin-2-yl)-N7-((R)-1,1,1-trifluoropropan-2-yl)-3,4-dihydro-1,4-methanopyrido[2,3-b][1,4]diazepine-5,7(2H)-dicarboxamide] | > 150 | A (EC1.5<1 μM) | –
19 | C[C@@H](NC(=O)c1ccc2c(n1)N(C(=O)Nc1ccc(OC[C@H](O)CO)cn1)[C@H]1CCN2C1)C(F)(F)F [Example 149, (4S)—N5-(5-((R)-2,3-dihydroxypropoxy)pyridin-2-yl)-N7-((R)-1,1,1-trifluoropropan-2-yl)-3,4-dihydro-1,4-methanopyrido[2,3-b][1,4]diazepine-5,7(2H)-dicarboxamide] | > 150 | A (EC1.5<1 μM) | –
